From publication PMC6445240, “Design, synthesis and evaluation of ^18F-labeled cationic carbonic anhydrase IX inhibitors for PET imaging” (Journal of Enzyme Inhibition and Medicinal Chemistry, 2017)
Counter-ions that a name gives are not always drawn.

Tests used:
CA-I = CA-I (Homo sapiens, UniProt P00915); test: stopped-flow CO2 hydration assay, CA-I; assay type: biochemical; settings: errors 5–10% from three assays, read-out: Inhibition constant (Ki) CA-I
CA-II = CA-II (Homo sapiens, UniProt P00918); test: stopped-flow CO2 hydration assay, CA-II; assay type: biochemical; settings: errors 5–10% from three assays, read-out: Inhibition constant (Ki) CA-II
CA-IV = CA-IV (Homo sapiens, UniProt P22748); test: stopped-flow CO2 hydration assay, CA-IV; assay type: biochemical; settings: errors 5–10% from three assays, read-out: Inhibition constant (Ki) CA-IV
CA-IV, sequence (P22748 19-312): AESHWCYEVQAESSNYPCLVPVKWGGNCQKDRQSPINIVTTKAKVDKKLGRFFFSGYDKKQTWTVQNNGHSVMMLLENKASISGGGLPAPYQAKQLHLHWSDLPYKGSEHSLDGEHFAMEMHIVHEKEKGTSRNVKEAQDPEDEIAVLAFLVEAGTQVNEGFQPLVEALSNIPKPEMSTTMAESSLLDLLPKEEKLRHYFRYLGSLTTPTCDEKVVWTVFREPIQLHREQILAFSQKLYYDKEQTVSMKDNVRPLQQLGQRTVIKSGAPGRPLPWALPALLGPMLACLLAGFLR

CA-IX = CA-IX (Homo sapiens, UniProt Q16790); test: stopped-flow CO2 hydration assay, CA-IX; assay type: biochemical; settings: errors 5–10% from three assays, read-out: Inhibition constant (Ki) CA-IX

CA-I, sequence (P00915 whole entry): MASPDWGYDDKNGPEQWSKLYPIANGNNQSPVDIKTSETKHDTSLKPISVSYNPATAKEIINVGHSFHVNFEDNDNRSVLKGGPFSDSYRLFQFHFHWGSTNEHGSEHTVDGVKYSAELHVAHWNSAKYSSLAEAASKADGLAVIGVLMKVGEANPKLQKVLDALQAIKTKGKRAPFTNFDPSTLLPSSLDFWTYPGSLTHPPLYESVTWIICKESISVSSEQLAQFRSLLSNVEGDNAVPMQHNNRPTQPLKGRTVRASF

| SMILES | melting point | Ki (CA-I) | Ki (CA-II) | Ki (CA-IV) | Ki (CA-IX) |
| --- | --- | --- | --- | --- | --- |
| C[N+](C)(Cc1ccc(F)cc1)Cc1ccc(C(=O)NCc2cccc(S(N)(=O)=O)c2)cc1 (as salt: bromide) [Compound 1, N-4-[[[3-(aminosulfonyl)benzyl]amino]carbonyl] benzyl-N,N-dimethyl-4-fluorobenzylammonium bromide] | 226 °C |  |  |  |  |
| C[N+](C)(Cc1ccc(F)cc1)Cc1ccc(C(=O)NCCc2ccc(S(N)(=O)=O)cc2)cc1 (as salt: bromide) [Compound 2, N-4-[[[2-[4-(aminosulfonyl)phenyl]ethyl]amino]carbonyl]benzyl-N,N-dimethyl-4-fluorobenzylammonium bromide] | 215 °C |  |  |  |  |
| C[N+](C)(Cc1ccc(F)cc1)Cc1ccc(C(=O)NCc2cccc(S(N)(=O)=O)c2)cc1 [Compound 1, N-4-[[[3-(aminosulfonyl)benzyl]amino]carbonyl] benzyl-N,N-dimethyl-4-fluorobenzylammonium bromide] |  | 890 nM | 720 nM | > 50000 nM | 440 nM |
| C[N+](C)(Cc1ccc(F)cc1)Cc1ccc(C(=O)NCc2ccc(S(N)(=O)=O)cc2)cc1 [Compound 3, N-4-[[[4-(aminosulfonyl)benzyl]amino]carbonyl] benzyl-N,N-dimethyl-4-fluorobenzylammonium bromide] |  | 780 nM | 480 nM | 3630 nM | 960 nM |
| C[N+](C)(Cc1ccc(F)cc1)Cc1ccc(C(=O)NCc2ccc(S(N)(=O)=O)cc2)cc1 (as salt: bromide) [Compound 3, N-4-[[[4-(aminosulfonyl)benzyl]amino]carbonyl] benzyl-N,N-dimethyl-4-fluorobenzylammonium bromide] | 228 °C |  |  |  |  |
| C[N+](C)(Cc1ccc(F)cc1)Cc1ccc(C(=O)NCCc2ccc(S(N)(=O)=O)cc2)cc1 [Compound 2, N-4-[[[2-[4-(aminosulfonyl)phenyl]ethyl]amino]carbonyl]benzyl-N,N-dimethyl-4-fluorobenzylammonium bromide] |  | 520 nM | 70 nM | 9540 nM | 220 nM |
